Here are results for 5 molecules from paper doi:10.1101/2023.03.24.534094v2 (biorxiv, 2023).

Structures are written as SMILES. Like-named read-outs stand apart in the source and are kept apart here.

Holding throughout (assay): biochemical
Assay [1] deals with T1, MAP2K7 (Homo sapiens, UniProt O14733).
T1 sequence (O14733 1-419): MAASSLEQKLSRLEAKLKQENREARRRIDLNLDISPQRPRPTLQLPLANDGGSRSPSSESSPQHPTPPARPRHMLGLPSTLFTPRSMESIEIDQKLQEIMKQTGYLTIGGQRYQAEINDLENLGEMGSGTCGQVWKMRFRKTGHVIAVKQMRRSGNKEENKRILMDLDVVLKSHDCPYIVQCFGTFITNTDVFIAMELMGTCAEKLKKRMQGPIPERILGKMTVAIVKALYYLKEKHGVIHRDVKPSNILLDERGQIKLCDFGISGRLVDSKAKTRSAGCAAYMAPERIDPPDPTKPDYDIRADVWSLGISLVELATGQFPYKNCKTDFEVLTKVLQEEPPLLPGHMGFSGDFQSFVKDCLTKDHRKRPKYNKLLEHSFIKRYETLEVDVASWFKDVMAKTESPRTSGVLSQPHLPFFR

In assay [2] the target is NEK7 (Homo sapiens, UniProt Q8TDX7).
Sequence of NEK7 (Q8TDX7 whole entry): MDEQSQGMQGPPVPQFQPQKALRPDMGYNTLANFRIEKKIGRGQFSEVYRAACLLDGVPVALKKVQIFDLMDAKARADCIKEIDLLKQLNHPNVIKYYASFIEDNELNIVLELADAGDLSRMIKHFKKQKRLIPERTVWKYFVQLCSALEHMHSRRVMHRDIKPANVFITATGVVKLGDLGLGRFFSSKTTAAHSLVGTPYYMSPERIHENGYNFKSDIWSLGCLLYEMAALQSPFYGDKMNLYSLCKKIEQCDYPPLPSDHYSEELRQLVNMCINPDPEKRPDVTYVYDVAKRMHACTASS
In assay [3] the target is BIKE (Homo sapiens, UniProt Q9NSY1).
Sequence of BIKE (Q9NSY1 whole entry): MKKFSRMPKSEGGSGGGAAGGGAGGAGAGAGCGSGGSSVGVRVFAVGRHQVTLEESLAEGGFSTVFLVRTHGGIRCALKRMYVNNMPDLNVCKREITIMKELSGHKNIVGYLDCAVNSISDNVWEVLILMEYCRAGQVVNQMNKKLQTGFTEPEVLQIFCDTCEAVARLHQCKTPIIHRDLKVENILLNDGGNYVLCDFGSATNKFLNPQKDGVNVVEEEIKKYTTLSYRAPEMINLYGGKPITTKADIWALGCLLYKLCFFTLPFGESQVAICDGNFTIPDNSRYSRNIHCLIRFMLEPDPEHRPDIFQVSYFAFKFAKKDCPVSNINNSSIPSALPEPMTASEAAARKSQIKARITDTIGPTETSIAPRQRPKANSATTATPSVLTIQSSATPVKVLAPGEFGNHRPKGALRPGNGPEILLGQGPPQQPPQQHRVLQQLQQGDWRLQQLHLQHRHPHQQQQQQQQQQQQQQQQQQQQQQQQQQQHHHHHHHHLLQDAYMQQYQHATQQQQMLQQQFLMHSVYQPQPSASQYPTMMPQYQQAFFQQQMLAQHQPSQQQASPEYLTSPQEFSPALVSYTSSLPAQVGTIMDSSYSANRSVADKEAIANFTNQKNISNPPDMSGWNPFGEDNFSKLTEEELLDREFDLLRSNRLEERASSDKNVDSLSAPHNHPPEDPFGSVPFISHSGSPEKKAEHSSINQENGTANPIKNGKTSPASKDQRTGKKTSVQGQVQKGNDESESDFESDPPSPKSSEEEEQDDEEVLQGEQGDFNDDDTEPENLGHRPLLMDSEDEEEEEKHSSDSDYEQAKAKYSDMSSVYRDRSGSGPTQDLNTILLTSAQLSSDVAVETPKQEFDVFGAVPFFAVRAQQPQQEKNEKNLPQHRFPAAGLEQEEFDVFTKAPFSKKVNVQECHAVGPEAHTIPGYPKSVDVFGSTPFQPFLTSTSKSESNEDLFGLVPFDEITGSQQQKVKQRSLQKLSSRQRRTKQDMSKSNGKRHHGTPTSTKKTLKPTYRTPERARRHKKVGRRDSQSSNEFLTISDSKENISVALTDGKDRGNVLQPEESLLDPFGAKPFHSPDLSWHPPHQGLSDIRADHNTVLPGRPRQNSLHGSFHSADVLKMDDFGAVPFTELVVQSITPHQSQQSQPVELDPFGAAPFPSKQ
Assay [4] has as its target T2, GAK (Homo sapiens, UniProt O14976).
T2 sequence (O14976 1-1311): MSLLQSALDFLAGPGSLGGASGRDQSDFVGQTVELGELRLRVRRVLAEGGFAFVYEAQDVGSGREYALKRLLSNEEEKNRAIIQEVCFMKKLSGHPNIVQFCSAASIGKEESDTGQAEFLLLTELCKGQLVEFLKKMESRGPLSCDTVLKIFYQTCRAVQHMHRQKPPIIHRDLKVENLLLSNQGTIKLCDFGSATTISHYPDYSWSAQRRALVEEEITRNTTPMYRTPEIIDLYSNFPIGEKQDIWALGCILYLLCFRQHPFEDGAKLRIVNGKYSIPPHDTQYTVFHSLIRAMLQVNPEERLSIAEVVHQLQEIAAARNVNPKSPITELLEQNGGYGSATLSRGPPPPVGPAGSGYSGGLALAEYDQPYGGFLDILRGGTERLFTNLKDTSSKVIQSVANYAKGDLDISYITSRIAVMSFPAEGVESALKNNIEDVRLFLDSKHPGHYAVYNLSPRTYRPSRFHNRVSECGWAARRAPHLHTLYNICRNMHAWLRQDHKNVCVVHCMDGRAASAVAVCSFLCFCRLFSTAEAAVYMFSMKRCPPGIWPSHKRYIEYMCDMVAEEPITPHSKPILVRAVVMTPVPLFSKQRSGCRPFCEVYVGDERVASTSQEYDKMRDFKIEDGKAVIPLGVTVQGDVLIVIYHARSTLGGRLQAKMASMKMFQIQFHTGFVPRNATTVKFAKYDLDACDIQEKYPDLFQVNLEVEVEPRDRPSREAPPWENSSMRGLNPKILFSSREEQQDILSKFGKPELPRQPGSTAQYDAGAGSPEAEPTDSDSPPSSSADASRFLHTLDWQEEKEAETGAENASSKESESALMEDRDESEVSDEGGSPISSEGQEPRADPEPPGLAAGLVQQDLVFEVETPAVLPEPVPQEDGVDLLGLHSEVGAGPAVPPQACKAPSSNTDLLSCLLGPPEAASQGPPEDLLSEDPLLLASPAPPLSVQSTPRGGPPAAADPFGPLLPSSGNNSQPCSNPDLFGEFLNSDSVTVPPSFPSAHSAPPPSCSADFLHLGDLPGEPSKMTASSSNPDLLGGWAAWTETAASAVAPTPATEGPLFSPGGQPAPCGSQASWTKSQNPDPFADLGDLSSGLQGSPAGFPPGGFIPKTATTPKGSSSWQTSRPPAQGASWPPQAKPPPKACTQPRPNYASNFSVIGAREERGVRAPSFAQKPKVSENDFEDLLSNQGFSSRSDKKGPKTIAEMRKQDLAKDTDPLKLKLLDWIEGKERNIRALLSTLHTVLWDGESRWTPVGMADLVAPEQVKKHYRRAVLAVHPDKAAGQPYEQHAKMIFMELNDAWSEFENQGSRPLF

Assay [5] has as its target T3, FECH (Homo sapiens, UniProt P22830).
T3 sequence (P22830 1-423): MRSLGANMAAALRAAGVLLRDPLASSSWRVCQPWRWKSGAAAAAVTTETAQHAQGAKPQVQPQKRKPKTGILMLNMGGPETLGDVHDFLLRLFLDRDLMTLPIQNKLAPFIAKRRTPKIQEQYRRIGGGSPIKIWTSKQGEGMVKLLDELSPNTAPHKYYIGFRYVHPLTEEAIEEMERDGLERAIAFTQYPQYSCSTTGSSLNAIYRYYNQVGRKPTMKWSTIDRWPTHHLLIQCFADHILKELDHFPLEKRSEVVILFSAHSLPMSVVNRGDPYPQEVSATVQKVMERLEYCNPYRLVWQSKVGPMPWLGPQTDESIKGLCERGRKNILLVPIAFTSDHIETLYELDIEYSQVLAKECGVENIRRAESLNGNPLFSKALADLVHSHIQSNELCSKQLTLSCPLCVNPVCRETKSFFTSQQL

The target of assay [6] is CK1e (Homo sapiens, UniProt P49674).
Sequence of CK1e (P49674 whole entry): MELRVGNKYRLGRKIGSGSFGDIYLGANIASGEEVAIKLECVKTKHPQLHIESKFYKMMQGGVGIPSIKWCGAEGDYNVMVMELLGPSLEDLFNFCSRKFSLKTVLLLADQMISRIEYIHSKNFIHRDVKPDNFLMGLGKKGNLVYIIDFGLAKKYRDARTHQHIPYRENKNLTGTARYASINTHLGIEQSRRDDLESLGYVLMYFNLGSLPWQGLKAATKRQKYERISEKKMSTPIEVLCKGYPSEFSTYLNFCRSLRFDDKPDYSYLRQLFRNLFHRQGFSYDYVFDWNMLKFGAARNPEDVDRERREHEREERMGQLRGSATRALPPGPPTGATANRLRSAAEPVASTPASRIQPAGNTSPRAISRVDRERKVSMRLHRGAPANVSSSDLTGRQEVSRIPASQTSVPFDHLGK
The target of assay [7] is CDKL1 (Homo sapiens, UniProt Q00532).
Sequence of CDKL1 (Q00532 whole entry): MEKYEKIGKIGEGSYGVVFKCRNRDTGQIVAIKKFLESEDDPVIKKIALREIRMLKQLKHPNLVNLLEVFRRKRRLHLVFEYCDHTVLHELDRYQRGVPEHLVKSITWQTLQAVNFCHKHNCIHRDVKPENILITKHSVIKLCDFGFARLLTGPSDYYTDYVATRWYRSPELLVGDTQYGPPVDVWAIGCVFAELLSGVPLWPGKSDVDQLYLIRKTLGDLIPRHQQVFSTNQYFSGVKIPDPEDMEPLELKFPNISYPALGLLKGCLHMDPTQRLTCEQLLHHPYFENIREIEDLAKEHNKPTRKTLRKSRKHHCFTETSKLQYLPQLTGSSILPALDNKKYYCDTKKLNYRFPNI
Assay [8] has as its target AKT3 (Homo sapiens, UniProt Q9Y243).

Sequence of AKT3 (Q9Y243 whole entry): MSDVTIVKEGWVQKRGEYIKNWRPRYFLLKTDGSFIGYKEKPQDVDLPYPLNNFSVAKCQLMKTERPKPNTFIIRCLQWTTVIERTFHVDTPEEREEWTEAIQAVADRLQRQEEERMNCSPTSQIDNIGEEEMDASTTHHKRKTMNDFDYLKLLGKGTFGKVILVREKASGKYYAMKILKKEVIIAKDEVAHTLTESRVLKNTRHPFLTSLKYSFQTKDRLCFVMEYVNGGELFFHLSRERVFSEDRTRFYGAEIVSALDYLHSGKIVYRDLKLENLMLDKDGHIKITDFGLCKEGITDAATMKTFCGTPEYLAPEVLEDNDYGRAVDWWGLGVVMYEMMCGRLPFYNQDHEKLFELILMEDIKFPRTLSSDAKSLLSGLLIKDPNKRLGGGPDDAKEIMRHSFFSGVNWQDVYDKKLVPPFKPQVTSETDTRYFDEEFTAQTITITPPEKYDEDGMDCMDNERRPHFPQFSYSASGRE

For the molecule `CNc1ncc2cc(-c3ccccc3Cl)c(=O)n(CCCCN)c2n1` [compound 4, 8-(4-Aminobutyl)-6-(2-chlorophenyl)-2-(methylamino)pyrido[2,3-d]pyrimidin-7(8H)-one], the ΔTm at 10 µM in assay [1] (read-out: dTm MR21 (4)) is 1.1 °C; in assay [2] (read-out: dTm MR21 (4)) it was 0.1 °C; in assay [3] (read-out: dTm MR21 (4)) it was 3.1 °C; in assay [4] (read-out: dTm MR21 (4)), 6.6 °C; in assay [5] (read-out: dTm MR21 (4)), -1.1 °C; in assay [6] (read-out: dTm MR21 (4)) it was 4.9 °C. Further, the ΔTm at 10 µM in assay [7] (read-out: dTm MR21 (4)) was determined as 0.5 °C; in assay [8] (read-out: dTm MR21 (4)) it was 0.7 °C.
Consider `CNc1ncc2cc(-c3cc(Br)ccc3Cl)c(=O)n(CCCCN)c2n1` [compound 6, 8-(4-Aminobutyl)-6-(5-bromo-2-chlorophenyl)-2-(methylamino)pyrido[2,3-d]pyrimidin-7(8H)-one], for which the ΔTm at 10 µM in assay [1] (read-out: dTm 6) is 0.9 °C; in assay [2] (read-out: dTm 6), -1 °C; in assay [3] (read-out: dTm 6) it was 0.6 °C; in assay [4] (read-out: dTm 6), 4.1 °C; in assay [5] (read-out: dTm 6), 0.2 °C; in assay [6] (read-out: dTm 6) it was 2.6 °C. For the same molecule, the results for the ΔTm at 10 µM in assay [7] (read-out: dTm 6) and in assay [8] (read-out: dTm 6) were 0 °C and 0.2 °C, respectively.
As to `CNc1ncc2cc(-c3ccc(-c4cccc(C)n4)cc3Cl)c(=O)n(CC3OCC(N)CO3)c2n1` (stereo not drawn) [compound 2, G-5555], the “dTm G-5555 (2)” value in assay [2] (10 µM, binder) was 0.1 °C; in assay [3] (10 µM, binder) it was 2.5 °C; in assay [4] (10 µM, binder), 6.1 °C; in assay [7] (10 µM, binder), -0.1 °C; in assay [8] (10 µM, binder), 1.4 °C.
Consider `CNc1ncc2cc(-c3cc(F)ccc3F)c(=O)n(CCCCN)c2n1` [compound 5, 8-(4-Aminobutyl)-6-(2,5-difluorophenyl)-2-(methylamino)pyrido[2,3-d]pyrimidin-7(8H)-one], for which the ΔTm at 10 µM in assay [1] (read-out: dTm MR22 (5)) was -0.9 °C; in assay [2] (read-out: dTm MR22 (5)) it was -1.3 °C; in assay [3] (read-out: dTm MR22 (5)) it was 2.1 °C; in assay [4] (read-out: dTm MR22 (5)) it was 5.4 °C; in assay [5] (read-out: dTm MR22 (5)), 0.3 °C; in assay [6] (read-out: dTm MR22 (5)), 2.8 °C. The ΔTm at 10 µM in assay [7] (read-out: dTm MR22 (5)) and in assay [8] (read-out: dTm MR22 (5)) was 0.5 °C in each case.
As to `CNc1ncc2cc(-c3cc(Br)ccc3Cl)c(=O)n(C[C@H]3OC[C@H](N)CO3)c2n1` [compound 7, 8-(((2r,5r)-5-Amino-1,3-dioxan-2-yl)methyl)-6-(5-bromo-2-chlorophenyl)-2-(methylamino)pyrido[2,3-d]pyrimidin-7(8H)-one], the ΔTm at 10 µM in assay [1] (read-out: dTm 7) is 0.1 °C; in assay [2] (read-out: dTm 7), -0.2 °C; in assay [3] (read-out: dTm 7), 0.7 °C; in assay [4] (read-out: dTm 7) it was 2.6 °C; in assay [5] (read-out: dTm 7), -1.1 °C; in assay [7] (read-out: dTm 7), -0.1 °C. Further, the ΔTm at 10 µM in assay [8] (read-out: dTm 7) came to 0 °C.
